Data published in PMC8154578, “Sustainable Drug Discovery of Multi-Target-Directed Ligands for Alzheimer’s Disease” (Journal of Medicinal Chemistry, 2021).

What was measured:
[1] = tested on: TNF-α, IL-1β, iNOS and COX-2 mRNA in LPS-induced BV-2 cells; experiment: Expression of proinflammatory cytokines and enzymes in LPS-induced BV-2 cells (real-time PCR); assay type: cell-based, murine; conditions: 0.1 μM for 24 h, then 100 ng/mL LPS for 24 h, compared to LPS
[2] = tested on: IL-1β release in LPS-activated BV-2 cells; experiment: Secretion of IL-1β in activated BV-2 cells (ELISA); assay type: cell-based, murine; conditions: 0.1 μM for 24 h, then 100 ng/mL LPS for 24 h, compared to LPS-treated cells
[3] = tested on: RAW264.7 murine macrophage cell line; design: method as in PMID 29890972; conditions: 50 μM; cited from earlier work

| Compound | COX-2 mRNA expression [1] | IL-1β mRNA expression [1] | TNF-α mRNA expression [1] | iNOS mRNA expression [1] | release of IL-1β in the culture medium [2] | expression of TNF-α, iNOS, COX-2, NF-κB, IL-1β, and IL-6 [3] |
| --- | --- | --- | --- | --- | --- | --- |
| COC(=O)c1c(CCCCCCCCNc2c3c(nc4cc(Cl)ccc24)CCCC3)cccc1OC [Compound 6, Methyl 2-(8-((6-Chloro-1,2,3,4-tetrahydroacridin-9-yl)amino)octyl)-6-methoxybenzoate] | significantly reduce | significantly reduce | significantly reduce | significantly reduce | significantly decrease |  |
| CCCCCCCCCCCCCCCc1cccc(O)c1C(=O)O [Compound 1a, reference compound] | reduced | reduced | reduced only the expression of IL-1β and COX-2 | reduced only the expression of IL-1β and COX-2 |  | significantly reduce |
| COC(=O)c1c(CCCCCCCCNc2c3c(nc4ccccc24)CCCC3)cccc1OC [Compound 5, Methyl 2-Methoxy-6-(8-((1,2,3,4-tetrahydroacridin-9-yl)amino)octyl)benzoate] | significantly downregulated | significantly downregulated | not TNF-α | significantly downregulated | significantly decrease |  |
